Patent publication US12564598B2, “Nitric oxide-sensitive hydrogel” (POSTECH RESEARCH AND BUSINESS DEVELOPMENT FOUNDATION, priority 2021, dated 2026)

Assay: Degradation of crosslinking agent after incubation in saturated NO solution (1H NMR, FT-IR, UV-Vis)
Assay type: physicochemical
Settings: incubation in a saturated NO solution; primary amine peak disappeared, benzotriazole formed
From the text: The mechanism by which the above synthesized crosslinking agent DA-NOCCL reacts with nitric oxide to degrade and the ^1H NMR, FT-IR, and UV-Vis absorption data confirming this are shown in FIGS. 4 and 5.

degradation in response to NO: can be degraded in response to NO
Compound: C#CCCC(=O)Nc1ccc(NC(=O)CCC#C)c(N)c1 [DA-NOCCL]
